Experiment: Solubility of LiPO2F2, LiF and LiPF6 in organic solvents

Row | Solubility (in words) (in acetone) | Solubility (in words) (in dimethoxyethane) | Solubility (in words) (in dimethyl carbonate and propylene carbonate) | SMILES | Solubility (in words) (in aprotic organic solvents)
1 | very low solubility | at most in negligible amounts | essentially insoluble | [F-].[Li+] [LiF] | only very sparingly soluble
2 | – | – | – | F[P-](F)(F)(F)(F)F.[Li+] [LiPF6] | comparably good solubility

— patent US20130129595A1 (SOLVAY SA, priority 2010, published 2013)
